Data reported in PubChem BioAssay (NCI).
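Protocol summary: plate cells (96-well), add compound at 5 concentrations, incubate 48 h, interpolate endpoints linearly. TGI: concentration producing complete growth inhibition.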

Key:
Test in all cases: NCI tumour cell line growth inhibition, 48 h
PC-3 prostate = system: PC-3 prostate
MDA-MB-231 breast = system: MDA-MB-231 breast
A549 NSCLC = system: A549 NSCLC
TK-10 renal = system: TK-10 renal
LOX IMVI melanoma = system: LOX IMVI melanoma
NCI-H23 lung = system: NCI-H23 lung
U251 CNS = system: U251 CNS
OVCAR-3 ovarian = system: OVCAR-3 ovarian
SF-295 CNS = system: SF-295 CNS
NCI/ADR-RES ovarian = system: NCI/ADR-RES ovarian
KM12 colon = system: KM12 colon
HCC-2998 colon = system: HCC-2998 colon
SN12C renal = system: SN12C renal
UACC-62 melanoma = system: UACC-62 melanoma
OVCAR-4 ovarian = system: OVCAR-4 ovarian
SNB-19 CNS = system: SNB-19 CNS
SK-MEL-28 melanoma = system: SK-MEL-28 melanoma
NCI-H226 lung = system: NCI-H226 lung
OVCAR-8 ovarian = system: OVCAR-8 ovarian
MDA-MB-435 = system: MDA-MB-435
SR leukemia = system: SR leukemia
SK-OV-3 ovarian = system: SK-OV-3 ovarian
HT29 colon = system: HT29 colon
NCI-H522 lung = system: NCI-H522 lung
SNB-75 CNS = system: SNB-75 CNS
COLO 205 colon = system: COLO 205 colon
BT-549 breast = system: BT-549 breast
HOP-62 NSCLC = system: HOP-62 NSCLC
EKVX NSCLC = system: EKVX NSCLC
HOP-92 NSCLC = system: HOP-92 NSCLC
IGROV1 ovarian = system: IGROV1 ovarian
ACHN renal = system: ACHN renal
UO-31 renal = system: UO-31 renal
HCT-116 colon = system: HCT-116 colon
SW-620 colon = system: SW-620 colon
MDA-N = system: MDA-N
SK-MEL-5 melanoma = system: SK-MEL-5 melanoma
M14 melanoma = system: M14 melanoma
MCF7 breast = system: MCF7 breast
HCT-15 colon = system: HCT-15 colon
MALME-3M melanoma = system: MALME-3M melanoma
T-47D breast = system: T-47D breast
DU-145 prostate = system: DU-145 prostate
SK-MEL-2 melanoma = system: SK-MEL-2 melanoma
CCRF-CEM leukemia = system: CCRF-CEM leukemia
RPMI-8226 leukemia = system: RPMI-8226 leukemia
SF-268 CNS = system: SF-268 CNS
OVCAR-5 ovarian = system: OVCAR-5 ovarian
NCI-H460 lung = system: NCI-H460 lung
786-0 renal = system: 786-0 renal
MOLT-4 leukemia = system: MOLT-4 leukemia
CAKI-1 renal = system: CAKI-1 renal
HL-60(TB) leukemia = system: HL-60(TB) leukemia
K-562 leukemia = system: K-562 leukemia
A498 renal = system: A498 renal
HS 578T breast = system: HS 578T breast
UACC-257 melanoma = system: UACC-257 melanoma
RXF 393 renal = system: RXF 393 renal
SF-539 CNS = system: SF-539 CNS

S=C(Nc1ccc2c(c1)oc1ccccc12)c1cccnc1
TGI (PC-3 prostate): > 100 µM | TGI (MDA-MB-231 breast): > 100 µM | TGI (A549 NSCLC): > 100 µM | TGI (TK-10 renal): > 100 µM | TGI (LOX IMVI melanoma): > 100 µM | TGI (NCI-H23 lung): > 100 µM | TGI (U251 CNS): 89.7 µM | TGI (OVCAR-3 ovarian): 67.3 µM | TGI (SF-295 CNS): > 100 µM | TGI (NCI/ADR-RES ovarian): > 100 µM | TGI (KM12 colon): > 100 µM | TGI (HCC-2998 colon): > 100 µM | TGI (SN12C renal): > 100 µM | TGI (UACC-62 melanoma): > 100 µM | TGI (OVCAR-4 ovarian): > 100 µM | TGI (SNB-19 CNS): 77.7 µM | TGI (SK-MEL-28 melanoma): > 100 µM | TGI (NCI-H226 lung): 96.1 µM | TGI (OVCAR-8 ovarian): > 100 µM | TGI (MDA-MB-435): > 100 µM | TGI (SR leukemia): > 100 µM | TGI (SK-OV-3 ovarian): 40.7 µM | TGI (HT29 colon): > 100 µM | TGI (NCI-H522 lung): 64 µM | TGI (SNB-75 CNS): 49.7 µM | TGI (COLO 205 colon): > 100 µM | TGI (BT-549 breast): > 100 µM | TGI (HOP-62 NSCLC): 32.9 µM | TGI (EKVX NSCLC): > 100 µM | TGI (HOP-92 NSCLC): > 100 µM | TGI (IGROV1 ovarian): > 100 µM | TGI (ACHN renal): > 100 µM | TGI (UO-31 renal): > 100 µM | TGI (HCT-116 colon): > 100 µM | TGI (SW-620 colon): > 100 µM | TGI (MDA-N): > 100 µM | TGI (SK-MEL-5 melanoma): > 100 µM | TGI (M14 melanoma): > 100 µM | TGI (MCF7 breast): > 100 µM | TGI (HCT-15 colon): > 100 µM | TGI (MALME-3M melanoma): > 100 µM | TGI (T-47D breast): > 100 µM | TGI (DU-145 prostate): > 100 µM | TGI (SK-MEL-2 melanoma): > 100 µM | TGI (CCRF-CEM leukemia): > 100 µM | TGI (RPMI-8226 leukemia): > 100 µM | TGI (SF-268 CNS): 87.4 µM | TGI (OVCAR-5 ovarian): > 100 µM | TGI (NCI-H460 lung): > 100 µM | TGI (786-0 renal): > 100 µM | TGI (MOLT-4 leukemia): > 100 µM

Nc1ccc(S2(c3ccc(N)cc3)C=C(c3ccccc3)C(c3ccccc3)=C2)cc1
TGI (PC-3 prostate): > 100 µM | TGI (MDA-MB-231 breast): > 100 µM | TGI (A549 NSCLC): > 100 µM | TGI (TK-10 renal): > 85.5 µM | TGI (LOX IMVI melanoma): > 100 µM | TGI (NCI-H23 lung): > 100 µM | TGI (U251 CNS): > 100 µM | TGI (OVCAR-3 ovarian): > 100 µM | TGI (CAKI-1 renal): > 22.6 µM | TGI (SF-295 CNS): > 100 µM | TGI (NCI/ADR-RES ovarian): > 100 µM | TGI (KM12 colon): > 100 µM | TGI (HCC-2998 colon): > 100 µM | TGI (SN12C renal): > 100 µM | TGI (UACC-62 melanoma): > 100 µM | TGI (OVCAR-4 ovarian): > 25.2 µM | TGI (SNB-19 CNS): > 100 µM | TGI (SK-MEL-28 melanoma): > 100 µM | TGI (HL-60(TB) leukemia): > 100 µM | TGI (NCI-H226 lung): > 63.3 µM | TGI (OVCAR-8 ovarian): 98.4 µM | TGI (MDA-MB-435): > 71.3 µM | TGI (SR leukemia): > 100 µM | TGI (SK-OV-3 ovarian): > 59.7 µM | TGI (HT29 colon): > 100 µM | TGI (SNB-75 CNS): > 100 µM | TGI (COLO 205 colon): > 100 µM | TGI (HOP-62 NSCLC): > 100 µM | TGI (K-562 leukemia): > 100 µM | TGI (EKVX NSCLC): > 100 µM | TGI (HOP-92 NSCLC): > 100 µM | TGI (A498 renal): > 90.3 µM | TGI (IGROV1 ovarian): > 100 µM | TGI (ACHN renal): > 92.5 µM | TGI (UO-31 renal): > 90.5 µM | TGI (HCT-116 colon): > 100 µM | TGI (SW-620 colon): > 100 µM | TGI (MDA-N): > 100 µM | TGI (SK-MEL-5 melanoma): > 100 µM | TGI (M14 melanoma): > 100 µM | TGI (MCF7 breast): > 100 µM | TGI (HS 578T breast): > 100 µM | TGI (HCT-15 colon): > 100 µM | TGI (MALME-3M melanoma): > 100 µM | TGI (T-47D breast): > 100 µM | TGI (DU-145 prostate): > 90.3 µM | TGI (UACC-257 melanoma): > 100 µM | TGI (RXF 393 renal): > 100 µM | TGI (SK-MEL-2 melanoma): > 88.4 µM | TGI (CCRF-CEM leukemia): > 100 µM | TGI (RPMI-8226 leukemia): > 100 µM | TGI (SF-268 CNS): > 100 µM | TGI (SF-539 CNS): > 100 µM | TGI (OVCAR-5 ovarian): > 100 µM | TGI (NCI-H460 lung): > 100 µM | TGI (786-0 renal): > 72.1 µM | TGI (MOLT-4 leukemia): > 100 µM
